Measurements as given in patent US9724337B2, “AG-205 for the treatment of breast cancer” (University of Kentucky Research Foundation, priority 2009, dated 2017).

Tests used:
A549 cells = experiment: Viability of A549 cells; format: cell-based, human; settings: A549 cells, single agent
Description: (A) Pgrmc1 (SEQ ID NO: 7) shares homology with AtMAPR2 (SEQ ID NO: 8) (underlined residues), which was the target for a screen for small molecule ligands. The putative heme-binding Tyr106 and Tyr112 are indicated with black boxes. (B) The molecular structure of AG-205 includes multiple aromatic components. (C) Spectroscopic scan of Pgrmc1 with vehicle control compared with vehicle plus 50 µM AG-205. The decrease in relative absorbance at 400 nm is consistent with an AG-205-induced change in the spectral properties of Pgrmc1-heme. The scan is representative of four separate scans using different Pgrmc1 protein preparations. The lower scan is a comparison of purified Pgrmc1 without and with the vehicle control (DMSO). Panels D (A549 cells) and E (MDA-MB-231 cells) are viability assays of cells maintained in 0.1% serum (solid line) or 10% serum (dashed line) and treated with increasing doses of AG-205. Percent viability was determined by cell counting, and “% viability” refers to the cell number relative to the untreated control.
(§1) Tissue culture. MDA-MB-468 cells were a kind gift from Dr. Rina Plattner of the University of Kentucky and were maintained in medium consisting of Dulbecco's Modified Eagle Medium containing 10% serum supreme (Fisher) and antibiotics. Cells were grown at 37° C. in 5% CO2 in air. A549 and HCC827 lung cancer cells, as well as SK-Br-3 breast cancer cells were obtained from the ATCC (American Type Culture Collection) and were grown under the same conditions. The H1650 lung cancer cell line was a kind gift from Dr. Heinz Kohler of the University of Kentucky. The Pgrmc1 ligand AG-205 was purchased from Timtec, Inc. The EGFR inhibitor AG1478 was from Biomol, Inc. and was used at a concentration range of 0.8-40 μM.
(§2) Proliferation, anchorage-independent growth and migration assays. For growth curves, cells were plated in 24 well dishes and grown in 10% serum-containing medium. At various times, the cells were harvested with trypsin and fixed with formaldehyde added to a final concentration of 3.7%. Following the harvest of the final time point, the cells from each time point were counted using a Bright-line hemocytometer (Hausser Scientific).
(§3) MTT viability assays were performed as described previously. Briefly, cells were plated in 96-well tissue culture dishes and grown in various media with different drug doses. The cells were then incubated with 0.5 mg/ml of 3-[4,5-dimethylthiazol-2-y]-2,5-diphenyltetrazolium bromide for 1.5 hours, at which time the media was removed, the precipitated crystals were dissolved in dimethyl sulfoxide, and the absorbance at 590 nm was measured using a Bio-Tek μQuant spectrophotometer.

MDA-MB-468 cells = experiment: Viability / proliferation of MDA-MB-468 cells; format: cell-based, human; settings: MDA-MB-468 cells, increasing doses of AG1478, MTT assay
Description: as §1, §2, §3

COc1cc2ncnc(Nc3cccc(Cl)c3)c2cc1OC [AG1478, reference compound]
decrease in viability / cells killed (A549 cells): 25%
change in proliferation rate between siCON and siPGR-transfected cells (MDA-MB-468 cells): largely blocked
